Laboratory results published in patent publication US8486994B2, “Prodrugs of substituted 1,3-dioxanes and their uses” (Evolva SA, priority 2007, dated 2013).
Like-named read-outs stand apart in the source and are kept apart here.

Tests used:
[1] = Pharmacokinetics (plasma exposure) after i.v. or p.o. dosing, non-compartmental analysis; assay type: in vivo, male Wistar rats; details: rat; for half-life: read-out: Terminal Half-life elimination, t½z
Experimental: Animals were fasted overnight before dosing p.o. (gavage or capsule) or by bolus intravenous application. Blood samples (approx. 0.15 ml) were taken at different time points into heparinized tubes by automated blood sampling. Plasma was prepared and stored frozen until bioanalysis.
• to an aliquot of 10 μL plasma 30 μL ACN/EtOH (50/50, v/v) are added • vortex • 20 min 14000 rpm approx. 8° C. • Supernatant transfer in HPLC vial Liquid Chromatography
The samples were analyzed by mass spectroscopy using ESI (negative ion mode) as the ionization mode. Selected Reaction Monitoring:
The quantitatively measured plasma concentration-time data were subjected to non-compartmental analysis (NCA) using the PCModfit program (version 3.00) for Windows® running with Excel 2003 (http://home2.btconnect.com/Gamms/PCModfit/; Allen, G. D. ‘Modfit: a pharmacokinetics computer program’ Biopharm. and Drug Disp., Vol. 11, 477-498, 1990). The points selected in each profile for half-life estimation using numerical analysis, where possible, corresponded to the final linear phase as visually assessed from ln(concentration) vs. time plots. The terminal elimination rate constant (λz) for each profile was numerically estimated using iteratively re-weighted non-linear least squares analysis with a weighting factor of 1/Ĉ^2. The area under the concentration-time curve to the last actual time point (AUC0-t) and infinity (AUC0-∞) for each data set were estimated using a linear (ascending) trapezoidal method. The extrapolated area to infinity (AUC0-∞) was estimated, where possible, using AUC0-t and the predicted value (Ĉn) at the last time point for each profile.
[formula] [formula] The Ci values correspond to the actual concentrations of drug at time ti for n data points. The C0 value was extrapolated using the first 4 time points.

Thromboxane synthase = target: T1, Thromboxane synthase (Homo sapiens, UniProt P24557); assay: Human Platelet Thromboxane Synthase Assay; assay type: biochemical
T1 sequence (P24557 1-533): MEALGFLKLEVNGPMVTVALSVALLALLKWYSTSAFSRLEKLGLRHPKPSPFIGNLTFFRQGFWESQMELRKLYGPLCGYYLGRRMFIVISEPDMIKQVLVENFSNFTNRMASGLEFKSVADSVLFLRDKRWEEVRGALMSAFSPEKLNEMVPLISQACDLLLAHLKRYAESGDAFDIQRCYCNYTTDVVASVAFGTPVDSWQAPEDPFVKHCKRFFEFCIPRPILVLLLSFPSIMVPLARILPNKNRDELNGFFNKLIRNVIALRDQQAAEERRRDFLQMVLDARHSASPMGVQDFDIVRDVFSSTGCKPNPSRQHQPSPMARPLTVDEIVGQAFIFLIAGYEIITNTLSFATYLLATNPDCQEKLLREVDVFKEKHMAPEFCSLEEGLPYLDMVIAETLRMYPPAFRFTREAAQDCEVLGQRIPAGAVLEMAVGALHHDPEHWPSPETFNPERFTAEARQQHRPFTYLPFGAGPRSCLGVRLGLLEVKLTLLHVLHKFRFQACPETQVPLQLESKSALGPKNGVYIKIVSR
Experimental: Using these experimental conditions Substrate: 10 μM PGH2, Vehicle: 1% DMSO
Pre-incubation time, temp: 15 min at 25° C., Incubation time, temp: 3 min at 25° C.
1. Imidazole derivatives. J Med Chem. 24(10):1139-48.
(§1) The data were transformed to semi-log and then analysed using non-linear regression to a four-parameter dose-response curve Y=Bottom+(Top−Bottom)/(1+10^((Log EC50−X)*HillSlope)) using the log(agonist) vs. response—Variable slope function of GraphPad Prism software (http://graphpad.com/help/prism5/prism5help.html?usingnonlinear_regression_step_by_s.ht m).

[2] = target: T2, Thromboxane receptor (TP) (Homo sapiens, UniProt P21731); assay: TP Receptor Radioligand Binding ([3H] SQ-29548); details: Human recombinant HEK-293 cells
T2 construct: expressed in transfected cells; host or cells: HEK-293
T2 sequence (P21731 1-343): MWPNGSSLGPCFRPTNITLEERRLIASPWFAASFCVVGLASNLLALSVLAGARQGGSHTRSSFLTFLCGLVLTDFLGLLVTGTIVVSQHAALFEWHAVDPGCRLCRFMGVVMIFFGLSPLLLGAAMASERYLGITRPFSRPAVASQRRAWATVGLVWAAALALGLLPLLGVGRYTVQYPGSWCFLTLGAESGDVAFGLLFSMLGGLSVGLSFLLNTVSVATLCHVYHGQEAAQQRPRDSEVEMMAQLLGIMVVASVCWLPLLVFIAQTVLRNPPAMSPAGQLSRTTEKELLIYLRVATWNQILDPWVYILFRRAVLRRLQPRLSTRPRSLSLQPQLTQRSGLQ
Experimental: Using these experimental conditions Human recombinant HEK-293 cells, Ligand: 5 nM [^3H] […] J Pharmacol Exp Ther. 245(3):786-92792, and Saussy D L Jr, Mais D E, Burch R M and Halushka P V (1986) Identification of a putative thromboxane A2/prostaglandin H2 receptor in human platelet membranes. J Biol Chem. 261(7):3025-9.
as §1

[3] = system: arterial thrombosis in a mouse model; assay: FeCl3 arterial thrombosis model (femoral artery, laser Doppler blood flow); assay type: in vivo, mice
Experimental: • Vehicle (DMSO/PEG 400, 5/95) • Dose of 1, 3, 10, 30, 100 and 300 mg/kg of Prodrug 3 in vehicle • Saline • Aspirin (dose of 100 mg and 600 mg/kg in vehicle) • Aspirin (Aspégic from Sanofi Synthelabo; dissolved in Saline) • Clopidogrel (Plavix from Sanofi Pharma; dissolved in H2O)
The solutions are diluted 3.3-fold in saline and 100 μl/25 g is injected. Thus, the above-mentioned doses of 100 and 300 mg/kg of compound correspond to final doses of 30 and 100 mg/kg.
Solutions are injected (100 μl/25 g body weight) i.v. in the tail vein over 2 min to obtain doses of each compound of 30 mg/kg and 100 mg/kg. Aspirin is given the same way at a dose of 200 mg/kg. Clopidogrel is administered by oral gavage at a dose of 20 mg/kg at 6-7 hours prior to the experiment. The animals assigned to each group are matched for body weight. Mice are typically 8-10 weeks old males and are in a 100% Swiss genetic background.
The flow in each image is expressed as a percentage of that at the contralateral side, and data are averaged for all 120 images to determine total flow. The same analysis is performed for 10 min intervals (which gives essentially the same information as the area under the curve). […] Flow before treatment is recorded as 100%, and that in occluded arteries as 0%. At the end of the experiment, blood is collected on 0.01M citrate buffer by heart puncture for determination of blood cell counts. Plasma is prepared by centrifugation and stored at −20° C. for determination of drug levels.
Statistical analysis for differences between two groups is performed by non-parametric Student t-test. Occlusion times >30 min were considered equal to 30 min for statistical analysis. Significance is set at p<0.05.

[4] = i.v., 3.53 mg/kg, DMSO/PEG400 (5%/95%)
[5] = i.v., 3.56 mg/kg, DMSO/PEG400/PBS 1X (5%/30%/65%)
[6] = p.o., 10 mg/kg, solid in capsules

For `COc1ccccc1[C@H]1OC(c2ccccc2Cl)OC[C@H]1C/C=C\CCC(=O)O` (stereo partly shown) [drawing 19], the half-life ([1]; male, Wistar, plasma, iv, 3.53 mg/kg, i.v., 3.53 mg/kg, DMSO/PEG400 (5%/95%)) was 182 ± 55 min, the Tmax ([1]; male, Wistar, plasma, iv, 3.53 mg/kg, i.v., 3.53 mg/kg, DMSO/PEG400 (5%/95%), read-out: Tmax (converted)) was 5 min and the “Cmax (ng/ml)/Dose (mg/kg)” value [1, 4] was 554 ± 154 (ng/ml)/Dose (mg/kg). The “Lin-AUC (0-∞) (ng•min/ml)/Dose (mg/kg)” value [1, 4] was 17416 ± 1734 (ng•min/ml)/Dose (mg/kg) and the T-Last [1, 4] was 8 to 12 h.

For `O=C(O)CC/C=C\C[C@@H]1CO[C@H](c2ccccc2Cl)O[C@@H]1c1ccccc1O` [drawing 18], the half-life ([1]; male, Wistar, plasma, iv, 3.56 mg/kg, i.v., 3.56 mg/kg, DMSO/PEG400/PBS 1X (5%/30%/65%)) was 46 ± 26 min, the Tmax ([1]; male, Wistar, plasma, iv, 3.56 mg/kg, i.v., 3.56 mg/kg, DMSO/PEG400/PBS 1X (5%/30%/65%), read-out: Tmax (converted)) was 5 min and the “Cmax (ng/ml)/Dose (mg/kg)” value [1, 5] was 614 ± 68 (ng/ml)/Dose (mg/kg). For the same compound, the “Lin-AUC (0-∞) (ng•min/ml)/Dose (mg/kg)” value [1, 5] was 12050 ± 1835 (ng•min/ml)/Dose (mg/kg) and the T-Last [1, 5] was 3 to 6 h.

For `COc1ccccc1[C@@H]1O[C@H](c2ccccc2Cl)OC[C@@H]1C/C=C\CCC(=O)O` [Compound 4, (Z)-6-((2R,4R,5S)-2-(2-chlorophenyl)-4-(2-methoxyphenyl)-1,3-dioxan-5-yl)hex-4-enoic acid], the IC50 (Thromboxane synthase) was 17.5 µM, the IC50 [2] was 1870 nM and the Ki [2] was 1220 nM.

With `O=C(O)CC/C=C\C[C@@H]1CO[C@H](c2ccccc2Cl)O[C@@H]1c1ccccc1O` [drawing 20] the half-life ([1]; male, Wistar, plasma, po, 10 mg/kg, p.o., 10 mg/kg, solid in capsules) was 95 ± 34 min, the Tmax ([1]; male, Wistar, plasma, po, 10 mg/kg, p.o., 10 mg/kg, solid in capsules, read-out: Tmax (converted)) was 90 min and the “Cmax (ng/ml)/Dose (mg/kg)” value [1, 6] was 236 ± 63 (ng/ml)/Dose (mg/kg). The “Lin-AUC (0-∞) (ng•min/ml)/Dose (mg/kg)” value [1, 6] was 27195 ± 4453 (ng•min/ml)/Dose (mg/kg) and the T-Last [1, 6] was 6 to 12 h.

For `COC(=O)[C@H](c1ccccc1Cl)N1CCc2sccc2C1` [Clopidogrel], the occlusion time ([3]; 20 mg/kg oral gavage 6-7 hours prior to the experiment) was “totally prevents occlusion within 30 min in 6/7 experiments” and the total blood flow ([3]; 20 mg/kg oral gavage 6-7 hours prior, versus vehicle) was “significantly improved total blood flow”.

With `CC(=O)Oc1ccccc1C(=O)O` [Aspirin] the occlusion time ([3]; 200 mg/kg i.v.) was “no effect on the occlusion time” and the total blood flow ([3]; 200 mg/kg i.v., versus vehicle) was “no significant effect on the total blood flow”.

In the case of `O=C(O)CC/C=C\C[C@@H]1CO[C@H](c2ccccc2Cl)O[C@@H]1c1ccccc1O` [drawing 24], the “Cmax (ng/ml)/Dose (mg/kg)” value [1, 6] is reported as 115 ± 123 (ng/ml)/Dose (mg/kg), the “Lin-AUC (0-∞) (ng•min/ml)/Dose (mg/kg)” value [1, 6] is reported as 17352 ± 14479 (ng•min/ml)/Dose (mg/kg) and the T-Last [1, 6] is reported as 8 to 12 h. For the same compound, the “Terminal Half-life elimination, t½z” value [1, 6] was 133 ± 45 min and the Tmax [1, 6] was 180 ± 127 min.

With `COc1ccccc1[C@H]1OC(c2ccccc2Cl)OC[C@H]1C/C=C\CCC(=O)O` (stereo partly shown) [Prodrug 3] the total blood flow ([3]; 10 mg/kg in vehicle, i.v.) was “no effect on total blood flow”, the occlusion time ([3]; 30 mg/kg in vehicle (DMSO/PEG 400), i.v.) was “prolongs the occlusion time as compared to aspirin (p=0.024) and the parent compound, but has no effect as compared to vehicle” and the total blood flow ([3]; 30 mg/kg in vehicle, i.v.) was “slightly improved total blood flow as compared to aspirin (p=0.055), but not as compared to vehicle”.

In the case of `COc1ccccc1[C@H]1O[C@@H](c2ccccc2Cl)OC[C@H]1C/C=C\CCC(=O)O` [Compound 5, (Z)-6-((2S,4S,5R)-2-(2-chlorophenyl)-4-(2-methoxyphenyl)-1,3-dioxan-5-yl)hex-4-enoic acid], the IC50 (Thromboxane synthase) is reported as 20.4 µM, the inhibition at 30 µM (Thromboxane synthase; at 30 μM) is reported as 62% and the IC50 [2] is reported as 23.4 nM. For the same compound, the Ki [2] was 15.3 nM.
